Tests used:
[1] = system: normal human fibroblast (NHF) cells; experiment: NHF Cell Cytotoxicity Assay (CellTiter-Blue, 72 h), off-target effects; format: cell-based; conditions: pooled NHF cells
Description: In some embodiments, the off-target effects of the compounds are evaluated in healthy human cells, such as in a normal human fibroblast (NHF) cell cytotoxicity assay.
Cell viability was examined following treatment at various concentrations of inhibitor (0.097656-50 μM) using a cell Titer-Blue cell viability assay. 1×10^4 normal human fibroblast cells per well were plated in 96-well assay plates in culture medium. All cells are grown in DMEM, IMDM and RPMI-1640 were supplemented with 10% FBS. After 24 hours, test compounds and vehicle controls are added to appropriate wells so the final volume was 100 μl in each well. The cells are cultured for the desired test exposure period (72 hours) at 37° C. and 5% CO2. The assay plates are removed from 37° C. incubator and 20 μL/well of CellTiter-Blue® Reagent is added. The plates are incubated using standard cell culture conditions for 1-4 hours and the plates are shaken for 10 seconds and record fluorescence at 560/590nm. For each sample well, value is normalized between the DMSO control and the highest concentration in case of plateau, and converted into a percentage. In the absence of plateau, minimum lecture is obtained from a different sample within the same experiment. For each concentration, the four replicates are averaged and standard deviation calculated. Data is fitted to a log(inhibitor) vs response curve with variable slope model using Microsoft Excel, obtaining IC50 and Hill slope variables.
A person skilled in the art would appreciate that a higher IC50 value in this NHF assay can indicate lower off-target effects.

[2] = system: glutathione (GSH); experiment: Reactivity Profiling with Glutathione (GSH), half-life by HPLC; conditions: 5 mM glutathione (GSH) in IMDM with 10% FBS
Description: 3.5 μL of 5 mM stocking solution of the inhibitors in DMSO was added to 697.5 μL of Iscove's Modified Dulbecco's Medium (IMDM) supplemented with 10% FBS and antibiotic antimycotic solution, with 5 mM glutathione to afford a final concentration of 25 μM inhibitor with 0.5% DMSO. The solution was then immediately placed in the sample tray at 25° C. […] For each inhibitor, its peak is integrated at different time points and compared to the time zero injection in order to obtain a percentage remaining. Half-life is calculated according to a first order reaction kinetic taking into account those time points for which remaining percentage of inhibitor is above 40%, using the formula: t½=Ln(2)/k, where k is the slope of the linear plot of Ln[Inhibitor] vs time, according to the formula: Ln[A]=Ln[A]0−kt, where [A] is the value resulting from the integration at each time point, [A]0 the value at time zero, and t the time. For each inhibitor, both replicates are averaged and the resulting t½ reported.

[3] = system: MV4-11 cells; experiment: MV4-11 Cell Cytotoxicity Assay (CellTiter-Blue, 72 h); format: cell-based, human; conditions: MV-4-11 cells
Summary of the method: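 Viability read-out: CellTiter-Blue, 1 h, fluorescence 560/590 nm. Preceded by 72 h exposure (37° C, 5% CO2) to twofold dilution series from 50 μM, triplicate, 0.5% DMSO vehicle, applied 24 h after plating.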

| half-life at 25 μM [2] [h] | Structure (SMILES) | IC50 ([1]; Homo sapiens, Fibroblast) [µM] | IC50 [1] [µM] | IC50 [3] [nM] | IC50 ([3]; Homo sapiens, MV4-11) [nM] |
| --- | --- | --- | --- | --- | --- |
| 2.37 to 4.12 | COc1cc(C(=O)O)ccc1N(Cc1cc(C2CC2)cc(C2CC2)c1)C(=O)CN(Cc1ncccc1C(F)(F)F)S(=O)(=O)c1c(F)c(F)c(F)c(F)c1F [Compound 1162, 4-(N-(3,5-dicyclopropylbenzyl)-2-(N-((3-(trifluoromethyl)pyridin-2-yl)methyl)-(2,3,4,5,6-pentafluoro-phenyl)sulfonamido)acetamido)-3-methoxybenzoic acid] | 10 to 20 | – | – | – |
| 2.37 to 4.12 | O=C(O)c1ccc(N(Cc2cc(C3CC3)cc(N3CCCC3)c2)C(=O)CN(Cc2cnccc2C(F)(F)F)S(=O)(=O)c2c(F)c(F)c(F)c(F)c2F)c(OC2CC2)c1 [Compound 1190, 3-cyclopropoxy-4-(N-(3-cyclopropyl-5-(pyrrolidin-1-yl)benzyl)-2-(N-((4-(trifluoromethyl)pyridin-3-yl)methyl)-(2,3,4,5,6-pentafluoro-phenyl)sulfonamido)acetamido)benzoic acid] | 0.001 to 10 | – | – | – |
| – | CC(C)(C)c1cc(CN(C(=O)CN(Cc2ccc(F)cc2Cl)S(=O)(=O)c2c(F)c(F)c(F)c(F)c2F)c2ccc(C(=O)O)cc2C2CC2)cc(C2CC2)c1 [Compound 1193, 4-(N-(3-(tert-butyl)-5-cyclopropylbenzyl)-2-(N-(2-chloro-4-fluorobenzyl)-(2,3,4,5,6-pentafluorophenyl)sulfon-amido)acetamido)-3-cyclopropylbenzoic acid] | – | 10 to 20 | 0.01 to 316 | – |
| – | Cc1cc(C(=O)O)cc(C)c1N(Cc1cc(C2CC2)cc(C2CC2)c1)C(=O)CN(Cc1c(F)c(F)c(F)c(F)c1F)S(=O)(=O)c1c(F)c(F)c(F)c(F)c1F [Compound 1204, 4-(N-(3,5-dicyclopropylbenzyl)-2-(N-((perfluorophenyl)methyl)-(2,3,4,5,6-pentafluoro-phenyl)sulfonamido)acetamido)-3,5-dimethylbenzoic acid] | 0.001 to 10 | – | – | 316 to 1000 |
| – | CN(C)c1cc(C(=O)O)ccc1N(Cc1cc(C2CC2)cc(N2CCCC2)c1)C(=O)CN(Cc1ccc(F)cc1Cl)S(=O)(=O)c1c(F)c(F)c(F)c(F)c1F [Compound 1212, 4-(2-(N-(2-chloro-4-fluorobenzyl)-(2,3,4,5,6-pentafluorophenyl)sulfon-amido)-N-(3-cyclopropyl-5-(pyrrolidin-1-yl)benzyl)acetamido)-3-(dimethylamino) benzoic acid] | 10 to 20 | – | – | 316 to 1000 |
| 4.12 to 9.23 | O=C(O)c1ccc(N(Cc2cc(C3CC3)cc(C3CC3)c2)C(=O)CN(Cc2ccc(F)cc2C(F)(F)F)S(=O)(=O)c2c(F)c(F)c(F)c(F)c2F)c(OC2CC2)c1 [Compound 1223, 3-cyclopropoxy-4-(N-(3,5-dicyclopropylbenzyl)-2-(N-(4-fluoro-2-(trifluoromethyl)benzyl)-(2,3,4,5,6-pentafluoro-phenyl)sulfonamido)acetamido)benzoic acid] | 20 to 30 | – | – | – |
| 2.37 to 4.12 | O=C(O)c1ccc(N(Cc2cc(C3CC3)cc(C3CC3)c2)C(=O)CN(Cc2ccc(F)cc2Cl)S(=O)(=O)c2c(F)c(F)c(F)c(F)c2F)c(OC2CCOCC2)c1 [Compound 1230, 4-(2-(N-(2-chloro-4-fluorobenzyl)-(2,3,4,5,6-pentafluorophenyl)sulfon-amido)-N-(3,5-dicyclopropylbenzyl)acetamido)-3-((tetrahydro-2H-pyran-4-yl)oxy)benzoic acid] | 0.001 to 10 | – | – | – |
| – | O=C(O)c1ccc(N(Cc2cc(C3CC3)cc(N3CCCC3)c2)C(=O)CN(Cc2ccc(F)cc2Cl)S(=O)(=O)c2c(F)c(F)c(F)c(F)c2F)c(OC2CCCC2)c1 [Compound 1239, 4-(2-(N-(2-chloro-4-fluorobenzyl)-(2,3,4,5,6-pentafluorophenyl)sulfon-amido)-N-(3-cyclopropyl-5-(pyrrolidin-1-yl)benzyl)acetamido)-3-(cyclopentyloxy)benzoic acid] | 20 to 30 | – | – | 0.01 to 316 |
| – | O=C(O)c1ccc(N(Cc2cc(C3CC3)cc(C3CC3)c2)C(=O)CN(Cc2ccc(F)cc2Cl)S(=O)(=O)c2c(F)c(F)c(F)c(F)c2F)c(N2CCCC2)c1 [Compound 1240, 4-(2-(N-(2-chloro-4-fluorobenzyl)-(2,3,4,5,6-pentafluorophenyl)sulfon-amido)-N-(3,5-dicyclopropylbenzyl)acetamido)-3-(pyrrolidin-1-yl)benzoic acid] | 10 to 20 | – | – | 0.01 to 316 |
| 2.37 to 4.12 | COCCOc1cc(C(=O)O)ccc1N(Cc1cc(C2CC2)cc(C2CC2)c1)C(=O)CN(Cc1ccc(F)cc1Cl)S(=O)(=O)c1c(F)c(F)c(F)c(F)c1F [Compound 1245, 4-(2-(N-(2-chloro-4-fluorobenzyl)-(2,3,4,5,6-pentafluorophenyl)sulfon-amido)-N-(3,5-dicyclopropylbenzyl)acetamido)-3-(2-methoxyethoxy)benzoic acid] | 0.001 to 10 | – | – | – |
| 2.37 to 4.12 | O=C(O)c1ccc(N(Cc2nc(C3CC3)cc(C3CC3)n2)C(=O)CN(Cc2ccc(F)cc2Cl)S(=O)(=O)c2c(F)c(F)c(F)c(F)c2F)c(OC2CC2)c1 [Compound 1247, 4-(2-(N-(2-chloro-4-fluorobenzyl)-(2,3,4,5,6-pentafluorophenyl)sulfon-amido)-N-((4,6-dicyclopropylpyrimidin-2-yl)methyl)acetamido)-3-cyclopropoxybenzoic acid] | 10 to 20 | – | – | – |
| 2.37 to 4.12 | CC(C)(C)c1cc(CN(C(=O)CN(Cc2ccc(F)cc2Cl)S(=O)(=O)c2c(F)c(F)c(F)c(F)c2F)c2ccc(C(=O)O)cc2O[C@H]2CCOC2)cc(C2CC2)c1 [Compound 1248, (S)-4-(N-(3-(tert-butyl)-5-cyclopropylbenzyl)-2-(N-(2-chloro-4-fluorobenzyl)-(2,3,4,5,6-pentafluorophenyl)sulfon-amido)acetamido)-3-((tetrahydrofuran-3-yl)oxy)benzoic acid] | 0.001 to 10 | – | – | – |
| 2.37 to 4.12 | CC(C)(C)c1cc(CN(C(=O)CN(Cc2ccc(F)cc2Cl)S(=O)(=O)c2c(F)c(F)c(F)c(F)c2F)c2ccc(C(=O)O)cc2O[C@@H]2CCOC2)cc(C2CC2)c1 [Compound 1249, (R)-4-(N-(3-(tert-butyl)-5-cyclopropylbenzyl)-2-(N-(2-chloro-4-fluorobenzyl)-(2,3,4,5,6-pentafluorophenyl)sulfon-amido)acetamido)-3-((tetrahydrofuran-3-yl)oxy)benzoic acid] | 10 to 20 | – | – | – |
| – | Cc1cc(C(=O)O)ccc1N(Cc1cc(C2CC2)cc(C(C)(C)C)c1)C(=O)CN(Cc1ccc(F)cc1Cl)S(=O)(=O)c1c(F)c(F)c(F)c(F)c1F [Compound 1250, 4-(N-(3-(tert-butyl)-5-cyclopropylbenzyl)-2-(N-(2-chloro-4-fluorobenzyl)-(2,3,4,5,6-pentafluorophenyl)sulfon-amido)acetamido)-3-methylbenzoic acid] | 0.001 to 10 | – | – | 0.01 to 316 |
| – | CCOc1cc(C(=O)O)ccc1N(Cc1cc(C2CC2)cc(C2CC2)c1)C(=O)CN(Cc1ccc(F)cc1C#N)S(=O)(=O)c1c(F)c(F)c(F)c(F)c1F [Compound 1275, 4-(2-((N-(2-cyano-4-fluorobenzyl)-2,3,4,5,6-pentafluorophenyl)sulfonamido)-N-(3,5-dicyclopropylbenzyl)acetamido)-3-ethoxybenzoic acid] | 0.001 to 10 | – | – | 0.01 to 316 |

— patent US20230159445A1, “STAT INHIBITORY COMPOUNDS AND COMPOSITIONS” (JANPIX LIMITED, priority 2020, published 2023)
